Tested on: mouse plasma stability, percent remaining
Test: stability of compounds in murine plasma, second set, biochemical ADME (AID 624419)
Conditions: at 1 µM

Row | plasma stability | Compound
1 | 97.6% | CCc1nnc(NC(=O)c2ccc(NS(=O)(=O)c3ccccc3)cc2)s1
2 | 6.46% | CN(C)C1=C(Cl)C(=O)N(c2ccc(Cl)c(Cl)c2)C1=O
3 | 99.5% | CCCN1CNc2c(c(=O)[nH]c(=S)n2CCc2ccc(OC)c(OC)c2)C1
4 | 100% | CC(=O)c1ccc(N2CCN(S(=O)(=O)c3ccc4c(c3)CC(=O)N4)CC2)cc1
5 | 100% | Cc1ccc(NS(=O)(=O)c2ccc3c(c2)CCC(=O)N3)cc1C
6 | 100% | Cc1ccc(S(=O)(=O)NCc2ccc(C(=O)NCCN(Cc3ccccc3)C(C)C)cc2)cc1
7 | 100% | COc1ccc(S(=O)(=O)N2CCN(S(=O)(=O)c3ccc4c(c3)OCCO4)CC2)cc1
8 | 100% | Brc1ccc2c(c1)CN1CCCC1=N2
9 | 100% | CC[C@H]1CN2CCc3cc(OC)c(OC)cc3[C@@H]2C[C@@H]1C[C@H]1NCCc2cc(OC)c(OC)cc21
10 | 73.7% | CCOc1ccc(NC(=S)N2CCC(C(O)(c3ccccc3)c3ccccc3)CC2)cc1
11 | 100% | c1ccc(CC2CCN(c3ncnc4sccc34)CC2)cc1
12 | 88.8% | O=C(O)CCC(NS(=O)(=O)c1ccc(-c2ccccc2)cc1)C(=O)O (stereo not given)
13 | 100% | C/C=C/Cn1c(SCCCc2ccccc2)nc2c1c(=O)[nH]c(=O)n2C
14 | 100% | O=C(O)c1ccccc1OCc1ccccc1Br
15 | 96.4% | c1ccc2c(Nc3nnc(-c4ccncc4)s3)cccc2c1
16 | 100% | COc1ccc(OC)c(S(=O)(=O)Nc2cnc3ccccc3c2)c1
17 | 92.1% | CCOc1ccc(-c2nc(-c3ccncc3)no2)cc1OCC
18 | 4.35% | COc1ccccc1N(/N=C1\Sc2ccccc2C1=O)C(C)=O
19 | 100% | COc1ccc(OC)c(-c2nnc3n2N=C(c2ccc(OC)c(OC)c2)CS3)c1
20 | 100% | CCCN(CCC)CCNC(=O)C1CCN(Cc2nc(-c3ccc(Cl)cc3)oc2C)CC1
21 | 100% | CCc1oc2ccccc2c1C(=O)c1cc(Br)c(O)c(Br)c1
22 | 73.7% | COc1ccc(S(=O)(=O)n2nc(OC(=O)c3ccccc3)cc2N)cc1

Row | plasma stability | Compound
23 | 100% | c1ccc(-c2nnc(N3CCOCC3)nc2-c2ccccc2)cc1
24 | 0.19% | CCOC(=O)C(C)Oc1cccc2c(=O)n(CC(=O)Nc3ccc4c(c3)OCCO4)ccc12 (stereo not given)
25 | 100% | N#Cc1ccccc1CSc1nc2ncc(Br)cc2[nH]1
26 | 100% | O=c1[nH]c2c(s1)C(c1cccnc1)C1C3CCC(C3)C1S2 (stereo not given)
27 | 98% | Cc1cc(C(=O)CN2C(=O)CCC2=O)c(C)n1Cc1ccccc1
28 | 91.6% | COc1ccc(Sc2ccc(NC(=O)c3ccccc3Cl)cc2C#N)cc1
29 | 91.4% | CS(=O)(=O)c1ccc(C(=O)OCC(=O)NC23CC4CC(CC(C4)C2)C3)cc1[N+](=O)[O-]
30 | 100% | O=[N+]([O-])c1ccc(CN2CCOCCOCCN(Cc3ccc([N+](=O)[O-])cc3)CCOCC2)cc1
31 | 97.2% | O=C1NCCCc2c1oc1ccc(O)cc21
32 | 100% | Cc1ccccc1N1CCN(c2ncnc3c2cnn3Cc2ccc(Cl)cc2)CC1
33 | 73.3% | Cc1ccc(NC(=O)CCC(=O)N/N=C/c2ccc([N+](=O)[O-])o2)cc1C
34 | 100% | Cc1ccc(S(=O)(=O)n2c(N)nc3ccccc32)cc1
35 | 100% | O=S(=O)(NC1CCCCC1N1CCOCC1)c1ccc(Cl)cc1 (stereo not given)
36 | 100% | O=C(O)c1cccnc1SCCc1ccccc1
37 | 93.6% | Cc1cc(C)nc(-n2nc(C)c(Sc3ccc(F)cc3)c2N)n1
38 | 87.1% | Cc1cccc(-n2cnc3cc(C(=O)N4CCCCC4)ccc32)c1
39 | 100% | Cc1ccc(C(=O)n2c3ccccc3c3ccccc32)cc1
40 | 100% | O=C(c1ccccn1)N(Cc1cccs1)C1(C(=O)NC2CCCCC2)CCCCC1
41 | 100% | Cc1ccc(-n2c(N)c(C#N)c(-c3ccccc3)c(C#N)c2=O)cc1
42 | 100% | O=C(CSc1cccc2cccnc12)N1CCCC1
43 | 73.5% | C=CCn1c(SCC(=O)c2ccc(O)c(O)c2)nnc1-c1ccccc1OC
44 | 100% | CCCOc1ccc(-c2nc(OC)c3ccccc3n2)cc1

Row | plasma stability | Compound
45 | 100% | O=S1(=O)Nc2c(ccc3cccnc23)-c2ccccc21
46 | 80.5% | COc1ccc(CNCc2cccc3ccccc23)cc1
47 | 100% | COc1ccc(C2c3c(ncn(CCN4CCOCC4)c3=N)Oc3ccc4ccccc4c32)cc1OC (stereo not given)
48 | 100% | O=C(CCNS(=O)(=O)c1cccc2nsnc12)N1CCN(c2ccccn2)CC1
49 | 100% | Cc1ccc(N2CCN(S(=O)(=O)N3CCCCC3)CC2)c(C)c1
50 | 17% | COC(=O)c1ccccc1NC(=O)c1ccc(F)cc1
51 | 2.35% | O=C(COC(=O)C12CC3CC(CC(C3)C1)C2)NCc1ccco1
52 | 100% | Cc1nc(SCc2nc3ccccc3[nH]2)c2oc3ccccc3c2n1
53 | 84% | CCCc1cc(C(=O)N(C2CCCCC2)C2CCCCC2)no1
54 | 15.5% | CCN1CCN(c2nc3ccccc3nc2C(C#N)C(=O)OC2CCCCC2)CC1 (stereo not given)
55 | 99.7% | O=C(O)c1ccc(N2C(=O)/C(=C/c3ccc(-c4ccc([N+](=O)[O-])cc4)o3)C=C2c2ccccc2)cc1
56 | 91.4% | CN(C)c1oc(-c2ccc(OCc3ccc(Cl)cc3)cc2)nc1C#N
57 | 100% | CC1CCCN(C(C(=O)Nc2ccc3c(c2)OCCO3)c2ccccc2)C1 (stereo not given)
58 | 56.7% | CCCc1nc2c(=O)n(C)c(=O)nc-2n(C)n1
59 | 83.4% | Cc1ccc(C)c(NS(=O)(=O)c2cc(C(=O)Nc3ccccc3-c3ccccc3)ccc2Cl)c1
60 | 100% | COc1cccc(-c2nc(-c3ccc(NC(=O)Cc4ccccc4OC)cc3)no2)c1
61 | 96.7% | CCCn1ncc(CN2CCCC(C(=O)c3cccc(OC(C)C)c3)C2)c1C (stereo not given)
62 | 100% | Cc1cc(C)n(-c2nc(NCCCO)c3c4c(sc3n2)CCCC4)n1
63 | 89.8% | Cc1cc2c(s1)c1cnn(Cc3ccccc3F)c(=O)c1n2C
64 | 100% | Brc1cc2c(cc1C1Nc3ccccc3C3C=CCC31)OCO2 (stereo not given)
65 | 91.3% | Cc1cc(-c2nnc3n2CCCCC3)c(C)n1-c1ccccc1
66 | 100% | O=c1[nH]c(SCc2ccc(Cl)cc2)nc2c1CCC2

Row | plasma stability | Compound
67 | 42.4% | COc1cc(NC(=O)c2cc(C3CC3)on2)c(OC)cc1Cl
68 | 81.9% | Cn1nnnc1Sc1ncnc2scc(-c3ccccc3)c12
69 | 15.3% | COc1ccc(N(C(=O)CCl)C(C(=O)NCCc2ccccc2)c2cccs2)cc1Cl (stereo not given)
70 | 100% | COc1ccc(CSc2nc(C)cc(=O)[nH]2)cc1
71 | 84.1% | Cn1cnc([N+](=O)[O-])c1Sc1ncnc2nc[nH]c12
72 | 100% | O=C1CCCC2=C1C1(CCCC1)N=C(Nc1nc3ccccc3o1)N2
73 | 100% | O=C(COc1ccccc1Br)NCCc1nc2ccccc2[nH]1
74 | 82.8% | NC(=O)C1CCN(c2nc(-c3ccc(Br)cc3)cs2)CC1
75 | 0.15% | Cc1ccnc(NC(=O)CCCOc2cc(=O)n(C)c3ccccc23)c1
76 | 84.8% | CSc1nc(-c2ccc(C)cc2)nc(C(Cl)Cl)n1
77 | 94.8% | Cc1ccc(C)c(OCCn2cc(C(=O)O)c3ccccc32)c1
78 | 100% | CN(C)c1nc(N)nc(CSc2nnnn2-c2cccc3ccccc23)n1
79 | 9.6% | N#C/C(=C\c1ccc([N+](=O)[O-])o1)c1nc2ccccc2[nH]1
80 | 95.2% | CC(C)C(=O)NC(c1ccco1)c1ccc2cccnc2c1O (stereo not given)
81 | 97.8% | Cc1ccc(S(=O)(=O)C(c2ccccc2)c2c(C)noc2C)cc1 (stereo not given)
82 | 100% | COc1ccc(C2CC(c3ccccc3)=NN2c2ccc(S(N)(=O)=O)cc2)cc1 (stereo not given)
83 | 0.14% | CCCC(=O)Nc1cccc(NC(=O)c2ccccc2Br)c1
84 | 52.7% | O=C1C2CC=CCC2C(=O)N1c1n[nH]c(-c2ccccc2)n1 (stereo not given)
85 | 100% | COc1nc(-c2ccccc2)nnc1-c1ccccc1
